Biological target: T1, Recombinant human HSP90α (Homo sapiens, UniProt P07900)
T1 construct: host or cells: E. coli
Test: HSP90 radioligand filter binding test ([3H]17AAG competition)
Conditions: [3H]17AAG 0.08 μM, HSP90 1.5 μg/assay, 22° C., 30 min; read-out: HSP90 inhibition IC50
Description: The binding of geldanamycin or 17-allylamino-17-demethoxygeldanamycin (17AAG) to HSP90 and competitive inhibition thereof can be utilised in order to determine the inhibitory activity of the compounds according to the invention (Carreras et al. 2003, Chiosis et al. 2002).
In the specific case, a radioligand filter binding test is used. The radioligand used here is tritium-labelled 17-allylaminogeldanamycin, [3H]17AAG. This filter binding test allows a targeted search for inhibitors which interfere with the ATP binding site.
Recombinant human HSP90α (E. coli expressed, 95% purity);
[3H]17AAG (17-allylaminogeldanamycin, [allylamino-2,3-^3H. Specific activity: 1.11×10^12 Bq/mmol (Moravek, MT-1717);
HEPES filter buffer (50 mM HEPES, pH 7.0, 5 mM MgCl2, BSA 0.01%) Multiscreen FB (1 μm) filter plate (Millipore, MAFBNOB 50).
The 96-well microtitre filter plates are firstly irrigated and coated with 0.1% of polyethylenimine.
The test is carried out under the following conditions:
Reaction temperature 22° C.
Reaction time: 30 min., shaking at 800 rpm
50 mM HEPES HCl, pH 7.0, 5 mM MgCl2, 0.01% (w/v) BSA
At the end of the reaction, the supernatant in the filter plate is removed by suction with the aid of a vacuum manifold (Multiscreen Separation System, Millipore), and the filter is washed twice.
The filter plates are then measured in a beta counter (Microbeta, Wallac) with scintillator (Microscint 20, Packard).
“% of control” is determined from the “counts per minutes” values and the IC-50 value of a compound is calculated therefrom.

Structure (SMILES)	IC50
Fc1nc(N2CCC[C@@H]2COc2ccccc2F)c2nc[nH]c2n1 [Compound A47, 2-Fluoro-6-[(R)-2-(2-fluorophenoxy-methyl)pyrrolidin-1-yl]-9H-purine]	0.9 µM
Brc1ccccc1OC[C@H]1CCCN1c1ncnc2[nH]cnc12 [Compound A52, 6-[(R)-2-(2-Bromophenoxymethyl)-pyrrolidin-1-yl]-9H-purine]	20 µM
O[C@H]1C[C@H](COc2ccccc2)N(c2nc(Cl)nc3[nH]cnc23)C1 [Compound A53, 2-chloro-6-[(2R,4S)-2-phenoxymethyl-4-hydroxypyrrolidin-1-yl]-9H-purine]	30 µM
Cc1nc(N2CCC[C@@H]2COc2ccccc2F)c2nc[nH]c2n1 [Compound A57, 2-Methyl-6-[(R)-2-(2-fluorophenoxy-methyl)pyrrolidin-1-yl]-9H-purine]	1.5 µM
Cc1nc(N2CCC[C@@H]2COc2ccccc2Cl)c2nc[nH]c2n1 [Compound A58, 2-Methyl-6-[(R)-2-(2-chloro-phenoxymethyl)pyrrolidin-1-yl]-9H-purine]	6.3 µM

— US7977343B2, “Adenine derivatives” (Merck Patent Gesellschaft mit beschrankter Haftung, priority 2005, dated 2011)
